Test results as given in patent publication US11046932B2, “Method of producing renal cells from differentiated cells” (priority 2016, dated 2021).

Tests used:
[1] = test system: mouse embryonic fibroblasts (MEFs); assay: Reprogramming efficiency: GFP-positive cells by flow cytometry in KSP-Cre mTOM/mGFP reporter MEFs; assay type: cell-based; conditions: added to culture medium of 4TF treated MEFs for 7 days: Vitamin C 50 μg/ml, CHIR99021 3 μM, Forskolin 10 μM, Valproic Acid 1 mM, 5-Azacytidine 2 μM
Protocol: Next, we expressed candidate transcription factors in isolated MEFs by lentiviral transduction and analyzed GFP reporter-expression by flow cytometry (FIG. 2a and FIG. 11a).
Tissue was minced with a scalpel and digested with 0.25% Trypsin-EDTA for 30 min at 37° C. Trypsinization was stopped by addition of MEF Medium (MEFM: Dulbecco's modified Eagle's medium (DMEM), 10% fetal bovine serum (FBS), 2 mM L-glutamine, penicillin/streptomycin). After resuspension the cells were centrifuged and the pellet was resuspended in MEFM and plated on gelatine-coated 6-well plates for 3 days until they reached confluency. […] MEFs, TTFs and human fibroblasts were frozen in liquid nitrogen and used without further passaging for reprogramming experiments. For efficiency improvement experiments the following substances were added to the cell culture medium for 7 days: Vitamin C (Sigma, 50 μg/ml); CHIR99021 (Sigma, 3 μM); Forskolin (FocusBiomolecules, 10 μM); Valproic Acid (Sigma, 1 mM); 5-Azacytidine (Sigma, 2 μM).
For the infection of MEFs, TTFs, HFoFs and HFeFs virus concentrate was diluted 1:100 (high viral titers) to 1:1000 (low viral titers) in MEFM containing 10 μg/ml Polybrene and cells were incubated for 12 h. Viral infection was repeated five to seven times. After cultivation in MEFM for 7 days, MEFs and TTFs were analyzed for GFP expression by flow cytometry.
For flow cytometry analyses, cells were harvested, resuspended in FACS buffer (PBS supplemented with 3% FBS and 5 mM EDTA), filtered through a 50 μm cell strainer and analyzed using the 13-color LCR Fortessa FACS analyzer (Becton Dickinson).

[2] = target: organic cation transporter 2 (Oct2) (Mus musculus, UniProt O70577); conditions: 6 μg/ml cisplatin and 1 mM cimetidine versus cisplatin alone
Protocol: Drug treated cells and untreated controls were stained with 1 μg/ml DAPI (Invitrogen, D1306) for 5 minutes and fluorescence was measured via flow cytometry using the 405 nm laser for excitation. Dead cells were identified by comparing emission of DAPI stained cell and unstained controls using a 450/50 nm band pass filter. For Kim-1 expression analysis MEFs and iRECs were treated with Gentamicin (1 mg/ml for 48 h), stained for Kim-1 (Miltenyi Biiotec, 130-106-024) and analyzed by flow cytometry. […] Cells were harvested and analyzed as described above. Experiments were performed in triplicates and repeated three times.

iRECs [3] = assay: Kim-1 expression analysis by flow cytometry after drug treatment; assay type: cell-based, mouse; conditions: Gentamicin 1 mg/ml for 48 h
Protocol: (§1) Cells were harvested and analyzed as described above. Experiments were performed in triplicates and repeated three times.

iRECs [4] = assay: Cytotoxicity assay (dead/apoptotic cells by DAPI flow cytometry) in iRECs versus MEFs; assay type: cell-based; conditions: Cisplatin 6 μg/ml 24 h; Tacrolimus 40 μM 24 h; Gentamicin 1 mg/ml 48 h
Protocol: as §1

Chain of organic cation transporter 2 (Oct2) (O70577 whole entry): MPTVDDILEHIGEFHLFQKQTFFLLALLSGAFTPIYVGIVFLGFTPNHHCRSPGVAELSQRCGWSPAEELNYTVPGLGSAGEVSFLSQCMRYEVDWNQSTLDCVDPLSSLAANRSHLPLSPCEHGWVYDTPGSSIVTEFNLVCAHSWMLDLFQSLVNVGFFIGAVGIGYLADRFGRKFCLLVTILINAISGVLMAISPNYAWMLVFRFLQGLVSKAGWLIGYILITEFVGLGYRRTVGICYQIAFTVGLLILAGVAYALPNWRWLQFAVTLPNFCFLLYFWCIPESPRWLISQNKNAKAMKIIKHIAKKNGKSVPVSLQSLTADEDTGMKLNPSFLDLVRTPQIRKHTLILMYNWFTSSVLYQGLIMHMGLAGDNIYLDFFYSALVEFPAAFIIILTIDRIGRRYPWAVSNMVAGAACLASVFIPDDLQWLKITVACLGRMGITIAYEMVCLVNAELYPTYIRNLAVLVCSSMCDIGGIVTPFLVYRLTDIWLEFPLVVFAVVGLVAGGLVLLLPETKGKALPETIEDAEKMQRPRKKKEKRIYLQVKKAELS

## Cc1c[nH]c(-c2cnc(NCCNc3ccc(C#N)cn3)nc2-c2ccc(Cl)cc2Cl)n1 [CHIR99021]
[1]
  effect on the percentage of GFP-positive cells: did not have an effect

## CN/C(=N/CCSCc1nc[nH]c1C)NC#N [Cimetidine]
[2]
  cisplatin induced toxicity in iRECs: decreased

## O=C1O[C@H]([C@@H](O)CO)C(O)=C1O [Vitamin C]
[1]
  effect on the percentage of GFP-positive cells: did not have an effect

## Gentamicin
iRECs [3]
  Kidney injury molecule 1 (KIM1) in iRECs: markedly increased
iRECs [4]
  rate of apoptosis in treated iRECs compared to MEFs: significantly higher

## CCCC(CCC)C(=O)O [valproic acid]
[1]
  effect on the percentage of GFP-positive cells: did not have an effect

## Nc1ncn([C@@H]2O[C@H](CO)[C@@H](O)[C@H]2O)c(=O)n1 [5 azacytidine, 5-azacytidine]
[1]
  effect on the percentage of GFP-positive cells: did not have an effect
